Where a SMILES comes first, the peptide text is derived from it.
Tests used:
Candida albicans UP10 = type: cell-based; details: for Anti-Candida activity (%) at 100 µg/mL: CDR peptides, 100 µg/mL in distilled water, 37°C, 6 h, CFU after 48–72 h, triplicate, C. albicans UP10
Method: The alanine substituted derivatives (asd), defined according to the position held by the alanine-substituted aminoacid, were tested in the same biological assays to critically establish the functional relevance of each residue [5]. In vitro microbicidal activity of CDR peptides and selected asd against C. albicans UP 10 (clinical isolate from the fungi collection of the University of Parma) and C. albicans NCPF 3153 (National Collection of Pathogenic Fungi, Bristol, UK) were used for the in vitro experiments.
The microbicidal activity of synthetic CDRs against C. albicans strains was preliminarily evaluated by testing 100 µg/mL of each synthetic peptide by colony forming unit (CFU) assays as previously described [5]. Briefly, 10 µL of a distilled water suspension containing ∼5×10^4/mL germinating yeast cells were added to 90 µL of distilled water containing the synthetic peptide to be tested. Yeast suspensions were incubated at 37°C for 6 h. After incubation, the cell suspensions were plated on Sabouraud dextrose agar, incubated at 30°C and observed for CFU determination after 48–72 hours. Each assay was carried out in triplicate. […] EC50 was calculated by nonlinear regression analysis using Graph Pad Prism 4.01 software, San Diego, CA, USA.

[1] = test system: B16F10-Nex2 murine melanoma cells; type: cell-based; details: 12 h
SKmel-25 = type: cell-based, human
Method: (§1) Murine B16F10-Nex2 melanoma cells (cloned at the Experimental Oncology Unit, Federal University of São Paulo, UNIFESP), and human SKmel28 and SKmel25 human melanoma cell lines originally obtained from the Memorial Sloan Kettering Cancer Center, New York, were cultured at 37°C, under humid atmosphere and 5% CO2, in RPMI-1640 medium with 10 mM N-2-hydroxyethylpiperazine-N2 ethanesulphonic acid (HEPES), 24 mM sodium bicarbonate, 40 mg/L gentamycin, pH 7.2 and 10% FCS.
(§2) Synthetic CDRs, scrambled peptides (controls), and […] of mAb C7/pc42 H2, selected for the highest cytotoxic activity, were diluted from 1 mM to 0.05 mM in RPMI with 10% FCS and incubated with B16F10-Nex2, SKmel28 and SKmel25 cells (5×10^3 cells/well) in 100 µL per well for 12 h at 37°C. Each peptide was tested in triplicate. After 12 h, the cytotoxic activities of the peptides were determined by measuring cell viability by Trypan Blue exclusion.

SKmel-28 = type: cell-based, human
Method: as §1, §2

R5 HIV-1 = type: cell-based; details: 10 µg/ml; for % inhibitory activity (10 µg/ml), endogenous HIV-1 replication: ex vivo, day 10 of culture, p24, mean of 3 determinations
Method: (§3) Briefly, for endogenous HIV-1 replication assays peripheral blood mononuclear cells (PBMCs) from R5 HIV-1-infected patients characterized by high viral RNA titers in plasma and cell-associated viremia were cultured in 96-well plates at 1×10^6 cells/mL in RPMI 1640 medium with 10% fetal calf serum (FCS) and 20 U/mL of rIL-2. Exogenous rIL-2 was added every 3–4 days. Cultures were treated with synthetic mAb CDRs and mAb C7/pc42 H1 asd at 10 µg/mL during the time of culture. Virus production on days 5 and 10 was assayed in the supernatants using ultrasensitive Alliance® HIV-1 p24 ELISA kit (Perkin Elmer); p24 Ag in the supernatants of untreated cultures corresponded to 100% of viral production. For exogenous infection assays, PHA-stimulated PBMCs obtained from healthy individuals were infected with BaL (R5) or IIIB (X4) HIV-1 strain at a median tissue culture infective dose (TCID50) of 500 TCID50/ml. After 2 h of adsorption, the cells were washed, suspended at 2×10^5 cells/ml in medium and cultured in 96-well cultures plates. At time zero of infection, synthetic peptides were added to the cultures at 10 µg/ml and were maintained throughout the experiment. All assays were performed in triplicate. Virus production was assayed 10 days after infection in the supernatants of HIV-1-infected PBMCs by p24 assay.

HIV-1 BaL (R5) = assay: In vitro exogenous HIV-1 infection of PHA-stimulated PBMCs, BaL strain (p24 assay); type: cell-based; details: day 10, p24, mean of 3 determinations
Method: as §3

HIV-1 IIIB (X4) = assay: In vitro exogenous HIV-1 infection of PHA-stimulated PBMCs, IIIB strain (p24 assay); type: cell-based; details: day 10, p24, mean of 3 determinations
Method: as §3

C. albicans NCPF 3153 = assay: Murine invasive candidiasis, i.p. peptide treatment; type: in vivo, BALB/c mice; details: day 5 post-infection; 200 µg peptide i.p. x3; saline 160.3±46.6
Method: Animal experiments were approved by the Institutional Review Board of the School of Medicine and Odontology at the University of the Basque Country, Spain. Female BALB/c mice, 8-weeks old (11–12 animals/group), were infected intravenously with 5×10^5 C. albicans NCPF 3153 yeast cells suspended in 0.1 mL saline. Mice were treated i.p. with 200 µg of mAb C7 L1 and mAb C7/pc42 H1 and H2 for 3 days starting on day 0, and 4 h after the fungal challenge, and at 24 and 48 h thereafter. Control mice were injected with saline (same treatment schedule as those treated with the CDRs). Protection was evaluated by monitoring animal survival for 20 days. The mean survival time and numbers of CFU of C. albicans in infected tissues were calculated as reported previously.
The Kaplan-Meier log rank test was applied to survival data. Data on CFU in infected tissues were analyzed by Student's t test. p values of 0.05 were considered significant.

HUVEC = assay: In vitro Matrigel angiogenesis assay; type: cell-based, human; details: peptides at 1 mM, C7/pc42 H2 at 50 µM; 18 h, 37°C; triplicate wells
Method: Matrigel™ Matrix (B&D Biosciences, Bedford, MA, USA) was thawed on ice, added (10 µL/well) to coat 96-well plates, and allowed to polymerize for 1 h at 37°C. Human umbilical vein endothelial cells (HUVEC) (5×10^3cells/well) were added alone or mixed with mAb C7 CDR peptides in 100 µL of RPMI medium supplemented with 0.2% of FCS in each well. All peptides were used at 1 mM, with the exception of mAb C7/pc42 H2 that was used at 50 µM. The plates were incubated at 37°C for 18 h and images were captured at 8× magnification with a Sony Cyber-shot camera coupled to a light microscope. The number of pro-angiogenic structures (closed rings formed at a given time by endothelial cell sprouting) was counted from 3 different wells, and the average value determined in each system, [45]. The assay was repeated at least three times.

| Compound | EC50 (Candida albicans UP10; UP10, 6 h) | EC50 [1] | cytotoxicity to human melanoma cell line SKmel-25 (SKmel-25) | cytotoxicity to human melanoma cell line SKmel-28 (SKmel-28) | Anti-Candida activity (%) at 100 µg/mL (Candida albicans UP10) | % inhibitory activity (10 µg/ml), endogenous HIV-1 replication (R5 HIV-1) | % inhibitory activity (10 µg/ml), exogenous HIV-1 replication, BaL (HIV-1 BaL (R5)) | % inhibitory activity (10 µg/ml), exogenous HIV-1 replication, IIIB (HIV-1 IIIB (X4)) | CFU counts in kidney tissue (C. albicans NCPF 3153) | inhibition of R5 HIV-1 replication in treated cultures (R5 HIV-1; ex vivo conditions) | endothelial cell sprouting on Matrigel (HUVEC) |
| --- | --- | --- | --- | --- | --- | --- | --- | --- | --- | --- | --- |
| CC[C@H](C)[C@H](NC(=O)[C@@H](N)Cc1ccc(O)cc1)C(=O)N[C@@H](CO)C(=O)N[C@@H](CS)C(=O)N[C@@H](Cc1ccc(O)cc1)C(=O)N[C@@H](CC(N)=O)C(=O)NCC(=O)N[C@@H](C)C(=O)N[C@H](C(=O)N[C@@H](CO)C(=O)N[C@@H](Cc1ccc(O)cc1)C(=O)N[C@@H](CC(N)=O)C(=O)N[C@@H](CCC(N)=O)C(=O)N[C@@H](CCCCN)C(=O)N[C@@H](Cc1ccccc1)C(=O)N[C@@H](CCCCN)C(=O)O)[C@@H](C)O [C7/pc42 H2] (H-YISCYNGATSYNQKFK-OH) | 4.19 µM | 53.5 µM | equally cytotoxic | equally cytotoxic | – | – | – | – | – | – | – |
| ARQGVRGGAMD [C7 H3, synthetic peptide identical to heavy chain CDR H3 of mouse mAb C7] | – | – | – | – | 55.5% | 0% | 0% | 75% | – | – | – |
| DASNRAT [HuA L2, synthetic peptide identical to light chain CDR L2 of human IgM mAb HuA] | – | – | – | – | 0% | 32% | 0% | 0% | – | – | – |
| GQTTVTKIDEDY [HuA H3, synthetic peptide identical to heavy chain CDR H3 of human IgM mAb HuA] | – | – | – | – | 19.2% | 36% | 0% | 0% | – | – | – |
| GYYMH [C7/pc42 H1, synthetic peptide identical to heavy chain CDR H1 shared by mAb C7 and mAb pc42] | – | – | – | – | 69.2% | 58% | 24% | 0% | 119.6±35.5 | > 50% | – |
| PNPLKAM [pc42 H3, synthetic peptide identical to heavy chain CDR H3 of mouse mAb pc42] | – | – | – | – | 25.9% | 0% | 11% | 0% | – | – | – |
| QHIRELTRSE [pc42 L3, synthetic peptide identical to light chain CDR L3 of mouse mAb pc42] | – | – | – | – | 83.9% | 0% | 0% | 0% | – | – | – |
| SYTFH [HuA H1, synthetic peptide identical to heavy chain CDR H1 of human IgM mAb HuA] | – | – | – | – | 12.9% | 38% | 84% | 0% | – | – | – |
| VLAYDGSYQHYADSVKG [HuA H2, synthetic peptide identical to heavy chain CDR H2 of human IgM mAb HuA] | – | – | – | – | 0% | 40% | 74% | 0% | – | – | – |
| WASTRES [C7 L2, synthetic peptide identical to light chain CDR L2 of mouse mAb C7] | – | – | – | – | 49.8% | 38% | 59% | 4% | – | – | inhibited endothelial cell sprouting |

Source: publication PMC2396520, “Antibody Complementarity-Determining Regions (CDRs) Can Display Differential Antimicrobial, Antiviral and Antitumor Activities” (PLoS ONE, 2008)
